# According to patent US12552824B2, “C-mannoside compounds useful for the treatment of urinary tract infections” (GLAXOSMITHKLINE INTELLECTUAL PROPERTY DEVELOPMENT LIMITED, priority 2018, dated 2026):
# Target: T1, FimH (Escherichia coli, UniProt Q1R2J4)
# T1 construct: endogenous in cells; host or cells: E. coli UTI89 whole bacteria, agglutinating guinea pig red blood cells
# Format: cell-based
# Conditions: concentration reducing bacterial agglutination of guinea pig red blood cells by greater than 90%; UTI89 bacteria
# Procedure: Hemagglutination Inhibition Assay (HAI)
# The hemagglutination inhibition (HAI) assay was performed with UTI89 bacteria and guinea pig red blood cells, as previously described (S. J. Hultgren, W. R. Schwan, A. J. Schaeffer, J. L. Duncan Infect. Immun. 1986, 54, 613-620 and Jarvis, C.; Han, Z.; Kalas, V.; Klein, R.; Pinkner, J. S.; Ford, B.; Binkley, J.; Cusumano, C. K.; Cusumano, Z.; Mydock-McGrane, L.; Hultgren, S. J.; Janetka, J. W., ChemMedChem 2016, 11, 367-373).
# 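Also: concentration in nM.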
row,Compound,HAI titer EC > 90
1,Cc1cc(-c2cc(F)c(C(C)O)c(F)c2)ccc1C(O)C1OC(CO)C(O)C(O)C1O (mixture of isomers) [Example 95],“++++” (<50 “++++”)
2,"Cc1cc(-c2cc(F)c(C(C)O)c(F)c2)ccc1[C@@H](O)[C@H]1O[C@H](CO)[C@@H](O)[C@H](O)[C@@H]1O (single isomer, unassigned) [Example 107]",“++++” (<50 “++++”)
3,"Cc1cc(-c2cc(F)c(C(C)O)c(F)c2)ccc1[C@@H](O)[C@H]1O[C@H](CO)[C@@H](O)[C@H](O)[C@@H]1O (single isomer, unassigned) [Example 108]",“++++” (<50 “++++”)
4,Cc1cc(-c2cc(Cl)ccc2OC(C)C)ccc1[C@@H](O)[C@H]1O[C@H](CO)[C@@H](O)[C@H](O)[C@@H]1O [Example 10],“++++” (<50 “++++”)
5,Cc1cc(-c2cc(C)c(Cl)c(C)c2)ccc1[C@@H](O)[C@H]1O[C@H](CO)[C@@H](O)[C@H](O)[C@@H]1O [Example 12],“+++” (50-200 “+++”)
6,Cc1cc(-c2ccc([C@@H](O)[C@H]3O[C@H](CO)[C@@H](O)[C@H](O)[C@@H]3O)c(C)c2)cc(C(C)(C)C)c1 [Example 14],“+++” (50-200 “+++”)
7,Cc1cc(-c2cc(F)ccc2F)ccc1[C@@H](O)[C@H]1O[C@H](CO)[C@@H](O)[C@H](O)[C@@H]1O [Example 17],“+++” (50-200 “+++”)
8,Cc1cc(-c2cccc(F)c2F)ccc1[C@@H](O)[C@H]1O[C@H](CO)[C@@H](O)[C@H](O)[C@@H]1O [Example 18],“+++” (50-200 “+++”)
9,Cc1cc(-c2cc(Cl)c(Cl)cc2O)ccc1[C@@H](O)[C@H]1O[C@H](CO)[C@@H](O)[C@H](O)[C@@H]1O [Example 19],“++++” (<50 “++++”)
10,COc1cc(Cl)c(Cl)cc1-c1ccc([C@@H](O)[C@H]2O[C@H](CO)[C@@H](O)[C@H](O)[C@@H]2O)c(C)c1 [Example 20],“++++” (<50 “++++”)
11,Cc1cc(-c2cc(F)cc(Cl)c2)ccc1[C@@H](O)[C@H]1O[C@H](CO)[C@@H](O)[C@H](O)[C@@H]1O [Example 22],“++++” (<50 “++++”)
12,Cc1cc(-c2ccc(F)c(F)c2)ccc1[C@@H](O)[C@H]1O[C@H](CO)[C@@H](O)[C@H](O)[C@@H]1O [Example 23],“+++” (50-200 “+++”)
13,Cc1cc(-c2ccc(F)c(C(F)(F)F)c2)ccc1[C@@H](O)[C@H]1O[C@H](CO)[C@@H](O)[C@H](O)[C@@H]1O [Example 25],“++++” (<50 “++++”)
14,Cc1cc(-c2cc(Cl)cc(C(F)(F)F)c2)ccc1[C@@H](O)[C@H]1O[C@H](CO)[C@@H](O)[C@H](O)[C@@H]1O [Example 26],“++++” (<50 “++++”)
15,COc1cc(-c2ccc([C@@H](O)[C@H]3O[C@H](CO)[C@@H](O)[C@H](O)[C@@H]3O)c(C)c2)ccc1F [Example 27],“+++” (50-200 “+++”)
16,Cc1cc(-c2ccc(OC(F)(F)F)c(F)c2)ccc1[C@@H](O)[C@H]1O[C@H](CO)[C@@H](O)[C@H](O)[C@@H]1O [Example 28],“+” (>1000 “+”)
17,OC[C@H]1O[C@H]([C@H](O)c2ccc(-c3cc(F)cc(F)c3)cc2Cl)[C@@H](O)[C@@H](O)[C@@H]1O [Example 29],“+++” (50-200 “+++”)
18,Cc1cc(-c2ccc(Cl)c(C(F)(F)F)c2)ccc1[C@@H](O)[C@H]1O[C@H](CO)[C@@H](O)[C@H](O)[C@@H]1O [Example 30],“++++” (<50 “++++”)
19,Cc1cc(-c2ccc(F)c(OC(F)(F)F)c2)ccc1[C@@H](O)[C@H]1O[C@H](CO)[C@@H](O)[C@H](O)[C@@H]1O [Example 31],“+++” (50-200 “+++”)
20,COc1cc(OC)cc(-c2ccc([C@@H](O)[C@H]3O[C@H](CO)[C@@H](O)[C@H](O)[C@@H]3O)c(C)c2)c1 [Example 33],“++++” (<50 “++++”)
21,COc1cc(-c2ccc([C@@H](O)[C@H]3O[C@H](CO)[C@@H](O)[C@H](O)[C@@H]3O)c(C)c2)cc(F)c1F [Example 34],“++++” (<50 “++++”)
22,COc1c(F)cc(-c2ccc([C@@H](O)[C@H]3O[C@H](CO)[C@@H](O)[C@H](O)[C@@H]3O)c(C)c2)cc1F [Example 35],“++++” (<50 “++++”)
23,Cc1cc(-c2cc(F)cc(OC(F)(F)F)c2)ccc1[C@@H](O)[C@H]1O[C@H](CO)[C@@H](O)[C@H](O)[C@@H]1O [Example 36],“++++” (<50 “++++”)
24,Cc1cc(-c2cc(F)cc(F)c2)cc(F)c1[C@@H](O)[C@H]1O[C@H](CO)[C@@H](O)[C@H](O)[C@@H]1O [Example 37],“++++” (<50 “++++”)

row,Compound,HAI titer EC > 90
1,Cc1cc(-c2ccc(C3CC3)c(F)c2)ccc1[C@@H](O)[C@H]1O[C@H](CO)[C@@H](O)[C@H](O)[C@@H]1O [Example 38],“+++” (50-200 “+++”)
2,COc1cc(-c2ccc([C@@H](O)[C@H]3O[C@H](CO)[C@@H](O)[C@H](O)[C@@H]3O)c(C)c2)cc(OC)c1F [Example 39],“++++” (<50 “++++”)
3,Cc1cc(-c2ccc([C@@H](O)[C@H]3O[C@H](CO)[C@@H](O)[C@H](O)[C@@H]3O)c(C)c2)c(F)cc1Cl [Example 40],“+++” (50-200 “+++”)
4,Cc1cc(-c2ccc(C(F)(F)F)c(Cl)c2)ccc1[C@@H](O)[C@H]1O[C@H](CO)[C@@H](O)[C@H](O)[C@@H]1O [Example 41],“++++” (<50 “++++”)
5,Cc1cc(-c2ccc(C(F)(F)F)cc2F)ccc1[C@@H](O)[C@H]1O[C@H](CO)[C@@H](O)[C@H](O)[C@@H]1O [Example 42],“+++” (50-200 “+++”)
6,Cc1cc(-c2cc(OC(F)(F)F)ccc2F)ccc1[C@@H](O)[C@H]1O[C@H](CO)[C@@H](O)[C@H](O)[C@@H]1O [Example 43],“+++” (50-200 “+++”)
7,Cc1cc(-c2cc(Cl)ccc2F)ccc1[C@@H](O)[C@H]1O[C@H](CO)[C@@H](O)[C@H](O)[C@@H]1O [Example 44],“+++” (50-200 “+++”)
8,Cc1cc(F)c(-c2ccc([C@@H](O)[C@H]3O[C@H](CO)[C@@H](O)[C@H](O)[C@@H]3O)c(C)c2)cc1F [Example 45],“++++” (<50 “++++”)
9,Cc1cc(-c2cc(C(F)(F)F)ccc2F)ccc1[C@@H](O)[C@H]1O[C@H](CO)[C@@H](O)[C@H](O)[C@@H]1O [Example 46],“+++” (50-200 “+++”)
10,Cc1cc(-c2cc(F)c(Cl)cc2F)ccc1[C@@H](O)[C@H]1O[C@H](CO)[C@@H](O)[C@H](O)[C@@H]1O [Example 47],“++++” (<50 “++++”)
11,Cc1cc(-c2cc(Cl)c(F)cc2F)ccc1[C@@H](O)[C@H]1O[C@H](CO)[C@@H](O)[C@H](O)[C@@H]1O [Example 48],“+++” (50-200 “+++”)
12,Cc1cc(-c2ccc(C(F)(F)F)c(F)c2F)ccc1[C@@H](O)[C@H]1O[C@H](CO)[C@@H](O)[C@H](O)[C@@H]1O [Example 49],“+++” (50-200 “+++”)
13,Cc1cc(Cl)c(-c2ccc([C@@H](O)[C@H]3O[C@H](CO)[C@@H](O)[C@H](O)[C@@H]3O)c(C)c2)cc1F [Example 50],“+++” (50-200 “+++”)
14,Cc1cc(-c2cc(F)cc(OC3CC3)c2)ccc1[C@@H](O)[C@H]1O[C@H](CO)[C@@H](O)[C@H](O)[C@@H]1O [Example 51],“++++” (<50 “++++”)
15,OC[C@H]1O[C@H]([C@H](O)c2c(F)cc(-c3cc(F)cc(F)c3)cc2Cl)[C@@H](O)[C@@H](O)[C@@H]1O [Example 52],“+++” (50-200 “+++”)
16,Cc1cc(-c2cc(F)c(C3CC3)c(F)c2)ccc1[C@@H](O)[C@H]1O[C@H](CO)[C@@H](O)[C@H](O)[C@@H]1O [Example 53],“++++” (<50 “++++”)
17,Cc1cc(-c2cc(C3CC3)ccc2F)ccc1[C@@H](O)[C@H]1O[C@H](CO)[C@@H](O)[C@H](O)[C@@H]1O [Example 54],“+++” (50-200 “+++”)
18,Cc1cc(-c2cc(Cl)ccc2OC(F)(F)F)ccc1[C@@H](O)[C@H]1O[C@H](CO)[C@@H](O)[C@H](O)[C@@H]1O [Example 55],“+++” (50-200 “+++”)
19,Cc1cc(-c2cc(Cl)c(C3CC3)cc2F)ccc1[C@@H](O)[C@H]1O[C@H](CO)[C@@H](O)[C@H](O)[C@@H]1O [Example 56],“+++” (50-200 “+++”)
20,Cc1ccc(-c2ccc([C@@H](O)[C@H]3O[C@H](CO)[C@@H](O)[C@H](O)[C@@H]3O)c(C)c2)cc1F [Example 57],“+++” (50-200 “+++”)
21,COc1cc(F)cc(-c2ccc([C@@H](O)[C@H]3O[C@H](CO)[C@@H](O)[C@H](O)[C@@H]3O)c(C(F)(F)F)c2)c1 [Example 58],“++++” (<50 “++++”)
22,OC[C@H]1O[C@H]([C@H](O)c2ccc(-c3cc(F)cc(C(F)(F)F)c3)cc2C(F)(F)F)[C@@H](O)[C@@H](O)[C@@H]1O [Example 59],“++++” (<50 “++++”)
23,Cc1cc(F)cc(-c2ccc([C@@H](O)[C@H]3O[C@H](CO)[C@@H](O)[C@H](O)[C@@H]3O)c(C)c2)c1 [Example 60],“+++” (50-200 “+++”)
24,Cc1cc(-c2cc(F)cc(C3CC3)c2)ccc1[C@@H](O)[C@H]1O[C@H](CO)[C@@H](O)[C@H](O)[C@@H]1O [Example 62],“+++” (50-200 “+++”)
